As a reminder, the IC50 is the midpoint of a concentration-inhibition curve. Low readings indicate greater potency in that assay, high ones weaker potency in that assay.

The text below walks through data of ChEMBL document CHEMBL1221372, “Design and synthesis of new adamantyl-substituted antileishmanial ether phospholipids” (Bioorg Med Chem Lett, 2010).

The test system of data set [1] is Leishmania infantum. Nature of the data set: Antileishmanial activity against intracellular amastigote form of Leishmania infantum MON 235 infected in human THP1 cells after 48 hrs using giemsa staining. As to conditions: MON 235, THP-1, 48 h. It is filed as functional, organism-based.
Data set [2] is described as follows: Selectivity index, ratio of IC50 for human THP1 cells to IC50 for intracellular amastigote form of Leishmania infantum MON 235. It is filed as toxicity, cell-based, THP-1. As to conditions: read-out: Ratio IC50.
Another data set relates to THP-1. As to the kind of experiment: Cytotoxicity against human THP1 cells using propidium iodide and SYBR-14 staining after 72 hrs by flow cytometry. It is filed as cell-based. As to conditions: THP-1, 72 h. A general note: In flow cytometry, cells or beads pass a laser one at a time.
Data set [3] has as its system Leishmania infantum. Nature of the data set: Antileishmanial activity against intracellular amastigote form of Leishmania infantum MK-1 infected in human THP1 cells after 48 hrs using giemsa staining. It is filed as functional, organism-based. To be noted: MK-1, THP-1, 48 h.
Data set [4] is described as follows: Selectivity index, ratio of IC50 for human THP1 cells to IC50 for intracellular amastigote form of Leishmania infantum MK-1. It is filed as toxicity, cell-based, THP-1. To be noted: read-out: Ratio IC50.
The species entered for the next data set is Homo sapiens. As to the kind of experiment: Half life in human. As to conditions: in vivo. It is filed as ADME, organism-based.

A value given as a limit tells only on which side of the number the result lay.

Take `C[N+](C)(C)[C@H]1CCCC[C@@H]1OP(=O)([O-])OCCCCCCCCCCC=C1C2CC3CC(C2)CC1C3`: the IC50 came to 0.8 µM in the data set on Leishmania infantum [1] and 39.7 µM in the data set on THP-1. Also, the selectivity ratio in data set [2] came out at 49.6.

As to `CCCCCCOCCC12CC3CC(C1)CC(CCOP(=O)([O-])OCC[N+](C)(C)C)(C3)C2`, the 50% inhibitory concentration (IC50) was 17.1 µM in the data set with Leishmania infantum [3] and more than 50 µM with THP-1.

In the case of `CCCCOCCC12CC3CC(C1)CC(CCOP(=O)([O-])OCC[N+](C)(C)C)(C3)C2`, the IC50 in the data set with Leishmania infantum [3] and in the data set with THP-1 was more than 50 µM each time.

Consider `C[N+](C)(C)[C@H]1CCC[C@@H]1OP(=O)([O-])OCCCCCCCCCCC=C1C2CC3CC(C2)CC1C3`, for which the IC50 was 0.3 µM in the data set with Leishmania infantum [1] and 75 µM in the data set with THP-1. In addition, the selectivity ratio in data set [2] turned out to be 250.

For the molecule `C[N+](C)(C)CCOP(=O)([O-])OCCC12CC3CC(CC(CCOCc4ccccc4)(C3)C1)C2`, the IC50 with Leishmania infantum [3] was 41.8 µM; in the data set on THP-1, more than 50 µM.

`C[N+](C)(C)CC#CCOP(=O)([O-])OCCCCCCCCCCC=C1C2CC3CC(C2)CC1C3` returned an IC50 in the data set on Leishmania infantum [1] of 5.2 µM. Also, the selectivity ratio in data set [2] is 14.5.

As for `C[N+]1(C)C2CCC1CC(=CCOP(=O)([O-])OCCCCCCCCCCC=C1C3CC4CC(C3)CC1C4)C2`, in the data set on Leishmania infantum [1], it took 9.1 µM to reach half-maximal inhibition (IC50). In addition, in data set [2], the selectivity ratio is 16.2.

Regarding `CCCCCCCCCCOCCC12CC3CC(C1)CC(CCOP(=O)([O-])OCC[N+](C)(C)C)(C3)C2`, the IC50 was more than 18.4 µM in the data set with Leishmania infantum [3] and 18.4 µM in the data set with THP-1.

In the data set on Leishmania infantum [1], `C[N+]1(CCOP(=O)([O-])OCCCCCCCCCCC=C2C3CC4CC(C3)CC2C4)CCCCC1` came in with an IC50 of 5.69 µM. The selectivity ratio in data set [2] came out at 29.6.

`CCCCCCCCCCCCOCCC12CC3CC(C1)CC(CCOP(=O)([O-])OCC[N+](C)(C)C)(C3)C2`: the half-inhibitory concentration (IC50) with Leishmania infantum [3] is more than 21.4 µM; in the data set on THP-1, 21.4 µM.

In the data set with Leishmania infantum [1], `C[N+]1(CCOP(=O)([O-])OCCCCCCCCCCC=C2C3CC4CC(C3)CC2C4)CCOCC1` had an IC50 of 1.34 µM. The selectivity ratio in data set [2] was 27.9.

With `C[N+](C)(C)CCOP(=O)([O-])OCCCCCCCCCCC=C1C2CC3CC(C2)CC1C3`, in the data set on Leishmania infantum [1], half-maximal inhibition (IC50) required 0.031 µM. The selectivity ratio in data set [2] amounted to 1920.

`CCCCCCCCCCCCCCCCOP(=O)([O-])OCC[N+](C)(C)C` [MILTEFOSINE]: the IC50 in the data set with Leishmania infantum [3] stood at 2.56 µM; with Leishmania infantum [1] it was 6.7 µM. Further, the results for the selectivity ratio in data set [4] and in data set [2] were 11.2 and 8.7, respectively. The same molecule returned a t1/2 in the data set filed under Homo sapiens of 1.67 h.

With `CCCCCCCCOCCC12CC3CC(C1)CC(CCOP(=O)([O-])OCC[N+](C)(C)C)(C3)C2`, the 50% inhibitory concentration (IC50) in the data set with Leishmania infantum [3] was 16.2 µM; in the data set with THP-1, more than 50 µM.
